Source: US10167300B2, “Metalloenzyme inhibitor compounds as fungicides” (priority 2014, dated 2019)
Read-outs that look alike come from different tables or passages of the source.

Test: Type B (low volume, EC formulation, track sprayer 200 L/ha) assay, leaf blotch of wheat, SEPTTR field isolate (FI SEPTTR)
Type: in vivo, Mycosphaerella graminicola on wheat plants (variety Yuma)
Settings: Zymoseptoria tritici, 72 h
Procedure: Example A: Evaluation of Fungicidal Activity: Leaf Blotch of Wheat (Mycosphaerella graminicola; Anamorph: Septoria tritici; Bayer Code SEPTTR)
For Type A assays, technical grades of the experimental fungicides in Table 4 below were dissolved in acetone, and then mixed with nine volumes of water containing 110 ppm Triton X-100. The fungicide solutions were applied onto wheat seedlings using an automated booth sprayer. For Type B assays, emulsifiable concentrate (EC) formulations of technical grades of the experimental fungicides in Table 4 below were prepared at 10% (w/v), and then mixed with 150 volumes of 0.1% Trycol 5941. These solutions were applied onto wheat seedlings using an automated track sprayer at 200 L/ha. All sprayed plants were allowed to air dry prior to further handling.
Wheat plants (variety Yuma) were grown from seed in a greenhouse in 50% mineral soil/50% soil-less Metro mix until the first leaf was fully emerged, with 7-10 seedlings per pot. Prior to or after application of experimental fungicides, plants were inoculated either with spores of a standard laboratory SEPTTR isolate (SI SEPTTR) or with spores from a SEPTTR field isolate collected from Wellsbourne, England in 2012 (FI SEPTTR). After inoculation the plants were kept for 3 days at 20° C. in 100% relative humidity (one day in a dark dew chamber followed by two days in a lighted dew chamber). Plants were then transferred to a 20° C. greenhouse for disease development. When disease symptoms were fully expressed on untreated plants, infection levels on treated plants were assessed on a scale of 0 to 100 percent disease severity. Percent disease control was calculated using the ratio of disease severity on treated plants relative to untreated plants.

[1] = field isolate, low volume EC, 100 g/ha, 3 Day Curative, wheat (Yuma), read-out: Disease Control, FI SEPTTR Type B Assay (100 g/ha) 3 DC
[2] = field isolate, low volume EC, 100 g/ha, 3 Day Protectant, wheat (Yuma), read-out: Disease Control, FI SEPTTR Type B Assay (100 g/ha) 3 DP
[3] = SEPTTR field isolate, low volume Type B assay, 100 g/ha, 3 Day Curative, wheat leaf blotch, read-out: Disease Control, FI SEPTTR Type B Assay (100 g/ha) 3 DC
[4] = SEPTTR field isolate, low volume Type B assay, 100 g/ha, 3 Day Protectant, wheat leaf blotch, read-out: Disease Control, FI SEPTTR Type B Assay (100 g/ha) 3 DP

Structure (SMILES)	pest or weed control at 100 g/ha [1] [%]	pest or weed control at 100 g/ha [2] [%]	other results
COC(c1cncnc1)(c1ccc(-c2ccc(C(C)(C)C#N)cc2)cn1)C(C)(C)C (stereo not shown) [Compound 214]	< 40	80 to 100	
CCOC(C)(c1cncnc1)c1ccc(-c2ccc(OC(F)(F)F)cc2F)cn1 (stereo not shown) [Compound 215]	< 40	< 40	
CSc1cc(C(C)(C)C#N)ccc1-c1ccc(C(O)(c2cncnc2)C(C)(C)C)nc1 (stereo not shown) [Compound 216, 2-(4-(6-(1-hydroxy-2,2-dimethyl-1-(pyrimidin-5-yl)propyl)pyridin-3-yl)-3-(methylthio)phenyl)-2-methylpropanenitrile]	80 to 100	80 to 100	
CC#CC(OC)(c1cncnc1)c1ccc(-c2ccc(OC(F)(F)F)cc2)cn1 (stereo not shown) [Compound 217]	< 40	< 40	
COc1ncncc1C(O)(c1ccc(-c2ccc(OCC(F)(F)F)nc2)cn1)C(C)(C)C (stereo not shown) [Compound 218]	< 40	80 to 100	
CC(C)(C)C(O)(Cc1cncnc1)c1ccc(-c2ccc(SC(F)(F)F)cc2)cn1 (stereo not shown) [Compound 219]	40 to 59	60 to 79	
CCOC(c1cncnc1)(c1ccc(-c2ccc(OC(F)(F)F)cc2F)cn1)C(C)(C)C (stereo not shown) [Compound 220]	< 40	80 to 100	
CC(O)(c1cncnc1)c1ccc(-c2ccc(OC(F)(F)F)cc2F)cn1 (stereo not shown) [Compound 221]	< 40	40 to 59	
COc1ncncc1C(O)(c1ccc(-c2ccc(OC(F)(F)F)cc2C)cn1)C(C)(C)C (stereo not shown) [Compound 222]	40 to 59	60 to 79	
Cc1cc(C(C)(C)C#N)ccc1-c1ccc(C(O)(c2cncnc2)C(C)(C)C)nc1 (stereo not shown) [Compound 223]	80 to 100	80 to 100	
Cc1cc(OC(F)(F)F)ccc1-c1ccc(C(O)(c2cnccn2)C(C)(C)C)nc1 (stereo not shown) [Compound 224]	40 to 59	60 to 79	
CC(C)(C)C(O)(c1ccc(-c2ccc(OCC(F)(F)F)cc2)cn1)c1cnccn1 (stereo not shown) [Compound 225]	80 to 100	60 to 79	
CC(C)(C#N)c1ccc(-c2ccc(C(O)(c3cncnc3)C(C)(C)C)nc2)c(F)c1 (stereo not shown) [Compound 226]	80 to 100	80 to 100	
CC(C)(C)C(O)(Cc1cccnc1)c1ccc(-c2ccc(C3(C#N)CC3)cc2)cn1 (stereo not shown) [Compound 227]	< 40	40 to 59	
COC(c1cncnc1)(c1ccc(-c2ccc(C(C)(C)C#N)cc2F)cn1)C(C)(C)C (stereo not shown) [Compound 228]	80 to 100	80 to 100	
CC(C)(C)C(O)(c1ccc(-c2ccc(C3(C#N)CC3)cc2)cn1)c1cnccn1 (stereo not shown) [Compound 229]	60 to 79	60 to 79	
CC(C)C(O)(c1cncnc1)c1ccc(-c2ccc(OC(F)(F)F)cc2F)cn1 (stereo not shown) [Compound 230]	< 40	80 to 100	
CCOC(c1cncnc1)(c1ccc(-c2ccc(OC(F)(F)F)cc2)cn1)C1CC1 (stereo not shown) [Compound 232]	< 40	60 to 79	
COc1ncncc1C(O)(c1ccc(-c2ccc(C3(C#N)CC3)cc2F)cn1)C(C)(C)C (stereo not shown) [Compound 233]	80 to 100	80 to 100	
CC(C)(C)C(O)(Cc1cccnc1)c1ccc(-c2ccc(OCC(F)(F)F)nc2)cn1 (stereo not shown) [Compound 234]	40 to 59	60 to 79	
CC(C)(C)C(O)(c1ccc(-c2ccc(OC(F)(F)F)cc2)cn1)c1cccnc1Cl (stereo not shown) [Compound 235]	60 to 79	80 to 100	
CC(C)(C)C(O)(c1cncnc1)c1ccc(-c2ccc(C3(C#N)CC3)cc2F)cn1 (stereo not shown) [Compound 236]	80 to 100	80 to 100	
C#CCOC(C)(c1cncnc1)c1ccc(-c2ccc(OC(F)(F)F)cc2F)cn1 (stereo not shown) [Compound 237]	< 40	40 to 59	
C#CCOC(CC)(c1cncnc1)c1ccc(-c2ccc(OC(F)(F)F)cc2F)cn1 (stereo not shown) [Compound 238]	60 to 79	< 40	

Structure (SMILES)	pest or weed control at 100 g/ha [1] [%]	pest or weed control at 100 g/ha [2] [%]	other results
Cc1cc(C(C)(C)C#N)cnc1-c1ccc(C(O)(c2cncnc2)C(C)(C)C)nc1 (stereo not shown) [Compound 239]	80 to 100	80 to 100	
COc1ncncc1C(O)(c1ccc(-c2ccc(C(C)(C)C#N)cc2)cn1)C(C)(C)C (stereo not shown) [Compound 240]	80 to 100	80 to 100	
COC(C)(c1cncnc1)c1ccc(-c2ccc(OC(F)(F)F)cc2)cn1 (stereo not shown) [Compound 241]	< 40	40 to 59	
CC#CC(OCC)(c1cncnc1)c1ccc(-c2ccc(OC(F)(F)F)cc2)cn1 (stereo not shown) [Compound 242]	< 40	40 to 59	
C#CCOC(O)(c1cncnc1)c1ccc(-c2ccc(OC(F)(F)F)cc2)cn1 (stereo not shown) [Compound 243]	< 40	80 to 100	
CCOC(CC)(c1cncnc1)c1ccc(-c2ccc(OC(F)(F)F)cc2)cn1 (stereo not shown) [Compound 244]	< 40	40 to 59	
COc1ncncc1C(O)(c1ccc(-c2ccc(C(C)(F)F)cc2)cn1)C(C)(C)C (stereo not shown) [Compound 246]	60 to 79	80 to 100	
COc1ncncc1C(O)(c1ccc(-c2ccc(Cl)cc2)cn1)C(C)(C)C (stereo not shown) [Compound 247]	< 40	80 to 100	
C#CCOC(C#CC)(c1cncnc1)c1ccc(-c2ccc(OC(F)(F)F)cc2F)cn1 (stereo not shown) [Compound 248]	< 40	40 to 59	
COC(c1cncnc1)(c1ccc(-c2ccc(OC(F)(F)F)cc2F)cn1)C(C)C (stereo not shown) [Compound 249]	60 to 79	80 to 100	
C#CCOC(c1cncnc1)(c1ccc(-c2ccc(OC(F)(F)F)cc2F)cn1)C1CC1 (stereo not shown) [Compound 250]	< 40	80 to 100	
CC(C)(C)C(O)(c1cncnc1)c1ccc(-c2ccc(C3(C#N)CCC3)cc2F)cn1 (stereo not shown) [Compound 251]	80 to 100	80 to 100	
Cc1cc(C(C)(C)C#N)cc(C)c1-c1ccc(C(O)(c2cncnc2)C(C)(C)C)nc1 (stereo not shown) [Compound 252]	80 to 100	80 to 100	
COC(c1cncnc1)(c1ccc(-c2ccc(OCC(F)(F)F)nc2)cn1)C(C)(C)C (stereo not shown) [Compound 253]	80 to 100	80 to 100	
C#CCOC(c1cncnc1)(c1ccc(-c2ccc(OC(F)(F)F)cc2)cn1)C1CC1 (stereo not shown) [Compound 255]	< 40	60 to 79	
COc1ncncc1C(O)(c1ccc(-c2ccc(C(C)(C)C#N)cc2F)cn1)C(C)(C)C (stereo not shown) [Compound 256]	80 to 100	80 to 100	
COC(c1cncnc1)(c1ccc(-c2ccc(OCC(F)(F)F)cc2)cn1)C(C)(C)C (stereo not shown) [Compound 257]			pest or weed control at 100 g/ha [3]: 60 to 79%; pest or weed control at 100 g/ha [4]: 60 to 79%
CCC(O)(c1cncnc1)c1ccc(-c2ccc(OC(F)(F)F)cc2)cn1 (stereo not shown) [Compound 258]			pest or weed control at 100 g/ha [3]: < 40%; pest or weed control at 100 g/ha [4]: 60 to 79%
CC(C)(C#N)c1ccc(-c2ccc(C(O[Si](C)(C)C)(c3cncnc3)C(C)(C)C)nc2)cc1 (stereo not shown) [Compound 259]			pest or weed control at 100 g/ha (read-out: Disease Control, FI SEPTTR Type B Assay (100 g/ha) 3 DC): 60 to 79%; pest or weed control at 100 g/ha (read-out: Disease Control, FI SEPTTR Type B Assay (100 g/ha) 3 DP): 80 to 100%
C#CCOC(CC)(c1cncnc1)c1ccc(-c2ccc(OC(F)(F)F)cc2)cn1 (stereo not shown) [Compound 260]			pest or weed control at 100 g/ha [3]: < 40%; pest or weed control at 100 g/ha [4]: 40 to 59%
COC(c1cncnc1)(c1ccc(-c2ccc(OC(F)(F)F)cc2C)cn1)C(C)(C)C (stereo not shown) [Compound 261]			pest or weed control at 100 g/ha [3]: 80 to 100%; pest or weed control at 100 g/ha [4]: 80 to 100%
CC(C)(C#N)c1ccc(-c2ccc(C(O)(c3cncc(F)c3)C(C)(C)C)nc2)cc1 (stereo not shown) [Compound 262]			pest or weed control at 100 g/ha [3]: 80 to 100%; pest or weed control at 100 g/ha [4]: 80 to 100%
COc1cc(C(C)(C)C#N)ccc1-c1ccc(C(O)(c2cncnc2)C(C)(C)C)nc1 (stereo not shown) [Compound 263]			pest or weed control at 100 g/ha [3]: 80 to 100%; pest or weed control at 100 g/ha [4]: 80 to 100%
